Results reported in patent US20220160703A1, “TUMOR-SELECTIVE COMBINATION THERAPY” (The Board of Regents of The University of Texas System, priority 2019, published 2022).

Tests used:
[1] = tested on: NQO1 positive human lung carcinoma lines A549; experiment: Cell survival of A549 cells (SRB); type: cell-based; details: β-lap 0-6 μM 3 hr, survival 4 days later
Description: (FIG. 18A) B16 NQO1 #1 cells were subcutaneously transplanted into C57BL/6 WT and Rag1KO mice (n=5/group), respectively. Tumor bearing mice were treated with β-lap (0.3 mg, i.t.) every other day for four times. (FIG. 18B) Changes of the immune cells in the tumor microenvironment 7 days after β-lap treatment. C57BL/6 mice (n=4/group) were transplanted with MC38 cells and intratumorally treated with 0.3 mg of β-lap for two times. 7 days after the last treatment, tumor tissue was removed and digested, and immune cells were analyzed with flow cytometer (unpaired student t-test was used to analyze the significance of changes, *P<0.05, **P<0.01). (FIG. 18C) C57BL/6 mice were transplanted with MC38 cells and treated with β-lap (0.3 mg, i.t.) every other day for four times. For T cell depletion, 200 μg of anti-CD4 or anti-CD8 antibodies were injected four times at three days interval during the treatment. […] Data are shown as mean±SEM.
Sulforhodamine B (SRB) Cytotoxicity Assay. 4,000 cells were planted in 96 or 48 well plate with triplicates. After overnight growth, cells were exposed to β-lapachone with or without NQO1 inhibitor dicoumarol (50 μM) for a 3-hour pulse.

IFNα/β = experiment: Type I IFN and cytokine expression in tumor tissue (ELISA, PCR); type: in vivo, mice; details: MC38-OVA, β-lap 0.3 mg i.t. two times, six days later
Description: FIGS. 19A-C (related to FIGS. 4A-F). TLR4/MyD88 pathway but not TLR9 signaling is required for the antitumor effect of β-lap. (FIGS. 19A-B) MC38-OVA bearing mice were treated with β-lap (0.3 mg, i.t.) for two times. Six days later, tumor tissues were collected for both single cell digestion (FIG. 19A) and RNA extraction (FIG. 19B). (FIG. 19A) The secreted IFNβ from the suspended cell supernatant was measured by ELISA after a 24 hr culture. (FIG. 19B) The mRNA levels of IFNα1, IFNγ, TNFα and CXCL10 were determined by real-time PCR assay. (FIG. 19C) MC38 cells were implanted into Myd88^−/−, Tlr4^−/− and Tlr9^−/− C57BL/6 mice, respectively. Tumor bearing mice were then treated with β-lap (0.3 mg, i.t.) every other day for four times. Tumor growth was monitored twice a week. Data are shown as mean±SEM. *P<0.05, **P<0.01, ***P<0.001 determined by unpaired t-test. FIGS. 25A-E. IB-DNQ induces tumor ICD and dendritic cell-mediated T cell cross-priming. (FIG. 25A) The levels of HMGB1 released into cell culture supernatant after IB-DNQ treatment. MC38, MC38 NOQ1^−/−, B16, and B16 NOQ1^+ cells were treated with IB-DNQ for 4 h followed by replacing medium and growth for 24 h, culture supernatant was collected and HMGB1 levels were determined by ELISA. (FIGS. 25B-C) Relative expression of IFN-α and IFN-β. […]

MC38 cells = experiment: 7-AAD and Annexin V cell death, flow cytometry; type: cell-based, murine; details: lethal dose of β-lap (4 μM)
Description: (FIG. 1A) NQO1 positive tumor cell lines MC38, TC-1 and Ag104Ld and NQO1 negative cell lines Panc02 and B16 grown in 48-well plates were treated with β-lap (0-8 μM) for a 3 hr followed by washing and replacing medium. Cell viability was determined by Sulforhodamine B (SRB) Assay 4 days later. […] (FIG. 1C) MC38 cells with CRISPR-based NQO1 Knockout (MC38 NQO1KO #5) planted in 96-well plates were exposed to β-lap for 3 hr and cell survival was assessed 48 hr later. […] (FIG. 1E) MC38 cells were exposed to a lethal dose of β-lap (4 μM) for indicated times, then stained with 7-AAD and Annexin V followed by flow cytometry analysis. […] (FIG. 1H) MC38 and B16 NQO1 #1 cells were exposed to β-lap for a 3 hr. Catalase (1000 U/ml) was added and cell survival was assessed 48 hr later. (FIG. 1I) C57BL/6 mice (n=5/group) were transplanted with MC38 cells and treated with β-lap (0.03 mg, 0.1 mg or 0.3 mg, intratumorally; or 25 mg/kg, i.v.) every other day for four times. […] Tumor growth was monitored twice a week.
(FIG. 21A) Viability of murine cell lines following IB-DNQ treatment for 4 h. […] (FIGS. 21D-E) DNA double strand break was assessed via comet assay (FIG. 21D) and γH2AX foci/nuclei immunofluorescence (FIG. 21E). (FIG. 21F) MC38 cell death after a 4 h exposure to IB-DNQ was determined by 7AAD and Annexin V staining using flow cytometry analysis.

CC1(C)CCC2=C(O1)c1ccccc1C(=O)C2=O [β-lap, β-lapachone]
response to β-lap in vitro [1]: sensitive | IFNα/β, CXCL10, IFNγ and TNFα in treated tumors (IFNα/β): upregulated | mode of cell death (MC38 cells): rapid cell swelling, membrane rupture and Annexin V+/7AAD+ cell death without caspase activation
